Laboratory results: patent EP0428132A1, “Pradimicin derivatives” (Bristol-Myers Squibb Company, priority 1989, dated 1991)
Values after ≈ are worked out from the molar mass of the structure shown.

Legend:
[1] = Water solubility, protocol I (PBS, HPLC); type: physicochemical; conditions: Method I: PBS without CaCl₂ and MgCl₂.6H₂O
Experimental: The supernatant (2 µL) was analyzed by HPLC using the conditions specified for each compound in the Experimental Section. […] When not soluble, an additional amount of PBS (x µL) was added, sonicated, and centrifuged. When visibly soluble, the solution (2 µL) was injected to HPLC and the peak area was used for the known concentration of the sample.

[2] = tested on: Trichophyton rubrum A26761; experiment: In vitro antifungal activity, serial agar dilution method (Table 1a); type: cell-based; conditions: A26761, YM agar (pH 7.0, Difco), 30°C for 2 days (yeast) or 4 days (filamentous fungi), read-out: MICs, Trichophyton rubrum A26761
Experimental: (§1) The inoculum size was adjusted to 10⁶ cells/ml, and a volume of approximately 0.003 ml of fungal suspension was applied to the surface of the antibiotic containing agar plates with a multiinoculator. After incubation, the lowest concentration of antibiotic causing virtually complete inhibition of fungal growth was determined as the minimum inhibitory concentration (MIC).

[3] = tested on: Cryptococcus neoformans A15053; experiment: as above; type: cell-based; conditions: A15053, YM agar (pH 7.0, Difco), 30°C for 2 days (yeast) or 4 days (filamentous fungi), read-out: MICs, Cryptococcus neoformans A15053
Experimental: as §1

[4] = tested on: Saccharomyces cerevisiae A25803; experiment: as above; type: cell-based; conditions: YM agar (pH 7.0, Difco), 30°C for 2 days (yeast) or 4 days (filamentous fungi), read-out: MICs, Saccharomyces cerevisiae A25803
Experimental: as §1

[5] = tested on: Candida tropicalis A25812; experiment: as above; type: cell-based; conditions: A25812, YM agar (pH 7.0, Difco), 30°C for 2 days (yeast) or 4 days (filamentous fungi), read-out: MICs, Candida tropicalis A25812
Experimental: as §1

[6] = tested on: Microsporum canis WW10218; experiment: as above; type: cell-based; conditions: WW10218, YM agar (pH 7.0, Difco), 30°C for 2 days (yeast) or 4 days (filamentous fungi), read-out: MICs, Microsporum canis WW10218
Experimental: as §1

[7] = tested on: Candida albicans A9540; experiment: as above; type: cell-based; conditions: A9540, YM agar (pH 7.0, Difco), 30°C for 2 days (yeast) or 4 days (filamentous fungi), read-out: MICs, Candida albicans A9540
Experimental: as §1

In the case of CN[C@@H]1[C@H](O[C@@H]2OC[C@@H](O)[C@H](O)[C@H]2O)[C@@H](O)[C@H](O[C@H]2c3cc(C)c(C(=O)N[C@H](C)C(=O)O)c(O)c3-c3c(cc4c(c3O)C(=O)c3cc(OC)cc(O)c3C4=O)[C@@H]2O)O[C@@H]1C [Pradimicin A, reference compound], the solubility [1] is reported as 17 µg/mL (≈ 20.2 µM), the MIC [2] is reported as 6.3 µg/mL (≈ 7.49 µM) and the MIC [3] is reported as 0.4 µg/mL (≈ 0.476 µM). For the same compound, the MIC [4] was 0.8 µg/mL (≈ 0.951 µM), the MIC [5] was greater than 50 µg/mL and the MIC [6] was 1.6 µg/mL (≈ 1.9 µM). For the same compound, the MIC [7] was greater than 50 µg/mL.
